Measured values from patent US9763445B2, “Safened herbicidal compositions comprising a pyridine carboxylic acid herbicide” (Dow AgroSciences, LLC, priority 2014, dated 2017).
Read-outs that look alike come from different tables or passages of the source.

Key:
spring wheat (TRZAS) = test: Postemergence greenhouse trial, % visual injury on spring wheat; format: in vivo, Triticum aestivum
Procedure: (§1) Seeds of the desired test plant species were planted in Sun Gro MetroMix® 306 planting mixture, which typically has a pH of 6.0 to 6.8 and an organic matter content of about 30 percent, in plastic pots with a surface area of 103.2 square centimeters (cm^2). When required to ensure good germination and healthy plants, a fungicide treatment and/or other chemical or physical treatment was applied. The plants were grown for 7-36 days (d) in a greenhouse with an approximate 14-hour (h) photoperiod which was maintained at about 23° C. during the day and 22° C. during the night. Nutrients and water were added on a regular basis and supplemental lighting was provided with overhead metal halide 1000-Watt lamps as necessary. The plants were employed for testing when they reached the second or third true leaf stage.
(§2) Weighed amounts of technical material were dissolved in a volume of 97:3 volume per volume (v/v) acetone/dimethyl sulfoxide (DMSO) to stock solutions. […] The concentrated stock solutions were diluted with an aqueous mixture of 1.5% v/v of Agri-dex crop oil concentrate to provide the appropriate application rates. Compound requirements are based upon a 12 milliliter (mL) application volume at a rate of 187 liters per hectare (L/ha). Stocks solutions of the safeners were prepared following the same procedure. Spray solutions of the safeners and experimental compound mixtures were prepared by adding the stock solutions to the appropriate amount of dilution solution to form a 12 mL spray solution in two-way combinations. Formulated compounds were applied to the plant material with an overhead Mandel track sprayer equipped with 8002E nozzles calibrated to deliver 187 L/ha over an application area of 0.503 square meters (m^2) at a spray height of 18 inches (43 centimeters (cm)) above average plant canopy. Control plants were sprayed in the same manner with the solvent blank. All herbicide application (component a) rates are in g ae/ha and all safener (component b) rates are in g ai/ha.
(§3) The treated plants and control plants were placed in a greenhouse as described above and watered by sub-irrigation to prevent wash-off of the test compounds. After 20-22 d, the condition of the test plants as compared with that of the control plants was determined visually and scored on a scale of 0 to 100 percent where 0 corresponds to no injury and 100 corresponds to complete kill. The condition of the test plants was compared with that of the control plants as determined visually and scored on a scale of 0 to 100 percent, where 0 corresponds to no injury and 100 corresponds to complete kill. Colby's equation was used to determine the herbicidal effects expected from the mixtures.
(§4) The safener cloquintocet-mexyl was combined with compound 1, compound 2, compound 4, compound 5, and compound 6, and applied to corn/maize (ZEAMX) and spring wheat (TRZAS) and the phytotoxicity of the herbicidal compositions was measured. In addition, the efficacy of the herbicidal composition on velvetleaf (ABUTH, Abutilon theophrasti), pigweed (AMARE, Amaranthus retroflexus), winter rape (BRSNW, Brassica napus), lambsquarters (CHEAL, Chenopodium album), thistle (CIRAR, Cirsium arvense), nutsedge (CYPES, Cyperus esculentus), poinsettia (EPHHL, Euphorbia heterophylla), wild buckwheat (POLCO, Polygonum convolvulus), giant foxtail (SETFA, Setaria faberi), and chickweed (STEME, Stellaria media) was evaluated.
(§5) The safener cloquintocet-mexyl was combined with compound 1, compound 2, compound 3, compound 7, compound 8, compound 9, compound 10, compound 11, compound 12, compound 13, compound 14, compound 15, compound 16, compound 17, compound 18, compound 19, and compound 20, and applied to spring wheat (TRZAS), winter wheat (TRZAW), and spring barley (HORVS) and the phytotoxicity of the herbicidal compositions was measured. […]

spring barley (HORVS) = test: Postemergence greenhouse trial, % visual injury on spring barley; format: in vivo, Hordeum vulgare
Procedure: as §1, §2, §3, §5

pigweed (AMARE) = test: Postemergence greenhouse trial, % visual injury on pigweed; format: in vivo, Amaranthus retroflexus; details: Amaranthus retroflexus, post-emergence, read-out: % visual injury, Ob
Procedure: as §1, §2, §3
as §4, with “evaluated. […]” for “evaluated.”
The safener cloquintocet-acid and a number of agriculturally acceptable esters and salts (-mexyl, -dimethylammonium salt and -triethylammonium salt) were combined in varying ratios with compound 1 and applied to spring wheat (TRZAS), winter wheat (TRZAW), and spring barley (HORVS), and the phytotoxicity of the herbicidal compositions was measured. […]

lambsquarters (CHEAL) = test: Postemergence greenhouse trial, % visual injury on lambsquarters; format: in vivo, Chenopodium album; details: Chenopodium album, post-emergence, read-out: % visual injury, Ob
Procedure: as §1, §2, §3, §4, §5

kochia (KCHSC) = test: Postemergence greenhouse trial, % visual injury on kochia; format: in vivo, Kochia scoparia; details: Bassia scoparia, post-emergence, read-out: % visual injury, Ob; for pest or weed control at 17.5 g/ha / pest or weed control at 35 g/ha / pest or weed control at 70 g/ha / pest or weed control at 4.375 g/ha / pest or weed control at 8.75 g/ha: KCHSC
Procedure: as §1, §2
as §3, with “mixtures. […]” for “mixtures.”

winter rape (BRSNW) = test: Postemergence greenhouse trial, % visual injury on winter rape; format: in vivo, Brassica napus; details: Brassica napus, post-emergence, BRSNW, read-out: % visual injury, Ob
Procedure: as §1, §2, §3
as §4, with “evaluated. […]” for “evaluated.”

prickly lettuce (LACSE) = test: Postemergence greenhouse trial, % visual injury on prickly lettuce; format: in vivo, Lactuca serriola; details: LACSE, CQC-m 0
Procedure: as §1, §2
as §3, with “mixtures. […]” for “mixtures.”

wild mustard (SINAR) = test: Postemergence greenhouse trial, % visual injury on wild mustard; format: in vivo, Sinapis arvensis; details: Brassica, post-emergence, SINAR, CQC-m 0, read-out: % visual injury, Ob
Procedure: as §1, §2
as §3, with “mixtures. […]” for “mixtures.”

[1] = system: bird's-eye speedwell (VERPE); test: Postemergence greenhouse trial, % visual injury on bird's-eye speedwell; format: in vivo, Veronica persica; details: VERPE, CQC-m 0
Procedure: as §1, §2
as §3, with “mixtures. […]” for “mixtures.”

common poppy (PAPRH) = test: Postemergence greenhouse trial, % visual injury on common poppy; format: in vivo, Papaver rhoeas; details: Papaver rhoeas, post-emergence, PAPRH, applied alone, read-out: % visual injury, Ob
Procedure: as §1, §2
as §3, with “mixtures. […]” for “mixtures.”

[2] = TRZAS, 4.375 g/ha, applied alone
[3] = TRZAS, 8.75 g/ha, applied alone
[4] = TRZAS, 17.5 g/ha, applied alone
[5] = HORVS, 4.375 g/ha, applied alone
[6] = HORVS, 8.75 g/ha, applied alone
[7] = HORVS, 17.5 g/ha, applied alone

Q: How did the “% visual injury, Ob” value (spring wheat (TRZAS); alone, 20 g/ha) turn out when `Nc1c(F)c(-c2ccc3cc[nH]c3c2F)nc(C(=O)[O-])c1Cl.[K+]` [compound 7] was run?
A: 10%

Q: What about the “% visual injury, Ob” value (spring barley (HORVS); alone, 20 g/ha) of the same molecule?
A: 5%

Q: What about the pest or weed control at 20 g/ha (pigweed (AMARE)) of the same molecule?
A: 88%

Q: What about the pest or weed control at 20 g/ha (lambsquarters (CHEAL)) of the same molecule?
A: 90%

Q: What about the pest or weed control at 20 g/ha (kochia (KCHSC)) of the same molecule?
A: 65%

Q: Which “% visual injury, Ob” value (spring wheat (TRZAS); TRZAS, compound 17.5 g/ha, CQC-m 0) does the source give for `COC(=O)c1nc(-c2ccc3cc[nH]c3c2F)c(F)c(/N=C/N(C)C)c1Cl` [compound 11] here?
A: 10%

Q: And the “% visual injury, Ob” value (spring wheat (TRZAS); TRZAS, compound 35 g/ha, CQC-m 0)?
A: 20%

Q: And the “% visual injury, Ob” value (spring wheat (TRZAS); TRZAS, compound 70 g/ha, CQC-m 0)?
A: 40%

Q: And the “% visual injury, Ob” value (spring barley (HORVS); HORVS, compound 17.5 g/ha, CQC-m 0)?
A: 10%

Q: What about the “% visual injury, Ob” value (spring barley (HORVS); HORVS, compound 35 g/ha, CQC-m 0) of the same molecule?
A: 20%

Q: What about the “% visual injury, Ob” value (spring barley (HORVS); HORVS, compound 70 g/ha, CQC-m 0) of the same molecule?
A: 40%

Q: And the plant injury at 17.5 g/ha (winter rape (BRSNW); compound 17.5 g/ha, CQC-m 0)?
A: 95%

Q: What about the plant injury at 35 g/ha (winter rape (BRSNW); compound 35 g/ha, CQC-m 0) of the same molecule?
A: 100%

Q: And the plant injury at 70 g/ha (winter rape (BRSNW); compound 70 g/ha, CQC-m 0)?
A: 100%

Q: What about the pest or weed control at 17.5 g/ha (kochia (KCHSC); compound 17.5 g/ha, CQC-m 0) of the same molecule?
A: 70%

Q: And the pest or weed control at 35 g/ha (kochia (KCHSC); compound 35 g/ha, CQC-m 0)?
A: 90%

Q: What about the pest or weed control at 70 g/ha (kochia (KCHSC); compound 70 g/ha, CQC-m 0) of the same molecule?
A: 90%

Q: What about the “% visual injury, Ob” value (prickly lettuce (LACSE); compound 17.5 g/ha) of the same molecule?
A: 0%

Q: And the “% visual injury, Ob” value (prickly lettuce (LACSE); compound 35 g/ha)?
A: 10%

Q: And the “% visual injury, Ob” value (prickly lettuce (LACSE); compound 70 g/ha)?
A: 40%

Q: And the pest or weed control at 17.5 g/ha (wild mustard (SINAR); compound 17.5 g/ha)?
A: 95%

Q: And the pest or weed control at 35 g/ha (wild mustard (SINAR); compound 35 g/ha)?
A: 100%

Q: And the pest or weed control at 70 g/ha (wild mustard (SINAR); compound 70 g/ha)?
A: 100%

Q: What about the “% visual injury, Ob” value ([1]; compound 17.5 g/ha) of the same molecule?
A: 85%

Q: What about the “% visual injury, Ob” value ([1]; compound 35 g/ha) of the same molecule?
A: 90%

Q: And the “% visual injury, Ob” value ([1]; compound 70 g/ha)?
A: 95%

Q: Which “% visual injury, Ob” value (spring wheat (TRZAS); [2]) does the source give for `COC(=O)c1nc(-c2ccc3sccc3c2)c(F)c(N)c1Cl` [compound 18] here?
A: 10%

Q: And the “% visual injury, Ob” value (spring wheat (TRZAS); [3])?
A: 25%

Q: And the “% visual injury, Ob” value (spring wheat (TRZAS); [4])?
A: 40%

Q: And the “% visual injury, Ob” value (spring wheat (TRZAS); TRZAS, 35 g/ha, applied alone)?
A: 50%

Q: What about the “% visual injury, Ob” value (spring wheat (TRZAS); TRZAS, 70 g/ha, applied alone) of the same molecule?
A: 70%

Q: And the “% visual injury, Ob” value (spring barley (HORVS); [5])?
A: 15%

Q: What about the “% visual injury, Ob” value (spring barley (HORVS); [6]) of the same molecule?
A: 25%

Q: What about the “% visual injury, Ob” value (spring barley (HORVS); [7]) of the same molecule?
A: 40%

Q: What about the “% visual injury, Ob” value (spring barley (HORVS); HORVS, 35 g/ha, applied alone) of the same molecule?
A: 50%

Q: And the “% visual injury, Ob” value (spring barley (HORVS); HORVS, 70 g/ha, applied alone)?
A: 70%

Q: And the pest or weed control at 4.375 g/ha (kochia (KCHSC); applied alone)?
A: 30%

Q: What about the pest or weed control at 8.75 g/ha (kochia (KCHSC); applied alone) of the same molecule?
A: 40%

Q: What about the pest or weed control at 17.5 g/ha (kochia (KCHSC); 17.5 g/ha, applied alone) of the same molecule?
A: 75%

Q: What about the pest or weed control at 35 g/ha (kochia (KCHSC); 35 g/ha, applied alone) of the same molecule?
A: 93%

Q: And the pest or weed control at 70 g/ha (kochia (KCHSC); 70 g/ha, applied alone)?
A: 90%

Q: What about the pest or weed control at 4.375 g/ha (common poppy (PAPRH)) of the same molecule?
A: 90%

Q: What about the pest or weed control at 8.75 g/ha (common poppy (PAPRH)) of the same molecule?
A: 90%

Q: And the pest or weed control at 17.5 g/ha (common poppy (PAPRH))?
A: 93%

Q: And the pest or weed control at 35 g/ha (common poppy (PAPRH))?
A: 93%

Q: What about the pest or weed control at 70 g/ha (common poppy (PAPRH)) of the same molecule?
A: 95%

Q: What does the source list for `COc1c(N)nc(-c2ccc3sccc3c2)nc1C(=O)O` [compound 19]?
A: % visual injury, Ob (spring wheat (TRZAS); [2]): 0%; % visual injury, Ob (spring wheat (TRZAS); [3]): 10%; % visual injury, Ob (spring wheat (TRZAS); [4]): 30%; % visual injury, Ob (spring wheat (TRZAS); TRZAS, 35 g/ha, applied alone): 40%; % visual injury, Ob (spring wheat (TRZAS); TRZAS, 70 g/ha, applied alone): 50%; % visual injury, Ob (spring barley (HORVS); [5]): 0%; % visual injury, Ob (spring barley (HORVS); [6]): 10%; % visual injury, Ob (spring barley (HORVS); [7]): 10%; % visual injury, Ob (spring barley (HORVS); HORVS, 35 g/ha, applied alone): 15%; % visual injury, Ob (spring barley (HORVS); HORVS, 70 g/ha, applied alone): 35%; plant injury at 4.375 g/ha (winter rape (BRSNW); 4.375 g/ha, applied alone): 0%; plant injury at 8.75 g/ha (winter rape (BRSNW); 8.75 g/ha, applied alone): 10%; plant injury at 17.5 g/ha (winter rape (BRSNW); 17.5 g/ha, applied alone): 20%; plant injury at 35 g/ha (winter rape (BRSNW); 35 g/ha, applied alone): 25%; plant injury at 70 g/ha (winter rape (BRSNW); 70 g/ha, applied alone): 30%; pest or weed control at 4.375 g/ha (kochia (KCHSC); applied alone): 0%; pest or weed control at 8.75 g/ha (kochia (KCHSC); applied alone): 0%; pest or weed control at 17.5 g/ha (kochia (KCHSC); 17.5 g/ha, applied alone): 0%; pest or weed control at 35 g/ha (kochia (KCHSC); 35 g/ha, applied alone): 10%; pest or weed control at 70 g/ha (kochia (KCHSC); 70 g/ha, applied alone): 60%; pest or weed control at 4.375 g/ha (common poppy (PAPRH)): 80%; pest or weed control at 8.75 g/ha (common poppy (PAPRH)): 80%; pest or weed control at 17.5 g/ha (common poppy (PAPRH)): 85%; pest or weed control at 35 g/ha (common poppy (PAPRH)): 90%; pest or weed control at 70 g/ha (common poppy (PAPRH)): 95%
